Data taken from patent US5977065A, “Bacterial nitroreductase for the reduction of CB1954 and analogues thereof to a cytotoxic form” (Cancer Research Campaign Technology Limited, priority 1991, dated 1999).
*1 amine or outer side, *2 acyl side, *3 side chain or, on linkers, in order; H or OH if unused. Where a SMILES comes first, the peptide text is derived from it. Bridges are numbered along the chain shown (N, C = ends). Roman numbers before positions name the chains, in order. [ ]: non-standard residue; d: D form. Actinocin(9to1) = Cc1c2oc3c(C)ccc(C(=O)[*:1])c3nc-2c(C(=O)[*:2])c(N)c1=O; NMeV = CN[C@H](C(=O)O)C(C)C; Sar = CNCC(=O)O

What was measured:
E. coli nitroreductase [1] = target: T1, E. coli nitroreductase (Escherichia coli, UniProt P38489); assay: Substrate specificity: relative rate of NADH oxidation by HPLC (Table 5); type: biochemical; conditions: relative to CB 1954; 37° C. in air, NADH 500 μM, substrate 100 μM
T1 construct: endogenous in cells; host or cells: E. coli B cell paste; endogenous enzyme purified by Phenyl-Sepharose and Q-Sepharose chromatography, not recombinant
Protocol: The ability of the E. coli nitroreductase of the invention to reduce nitro-compounds other than CB 1954 was determined by HPLC by following the decrease in the peak area of NADH resulting from its oxidation. The experiments were carried out as above but the aliquots were injected onto a Partisphere SAX (110×4.7 mm) HPLC column and eluted isocratically (1 ml/min) with 75 mM NaH2 PO4.
The relative rates of reduction of various nitrobenzamides and
nitrobenzenes with E. coli nitroreductase enzyme. Reduction
rates were determined by the resulting oxidation of NADH. All
reactions were carried out at 37° C. in air, with NADH (500
electron donor, at an initial substrate concentration of 100 μM.

[2] = In vivo toxicity of prodrug in mice; conditions: for deaths: dose 10 mg/kg i.p., groups of 3 mice, 10 mg/kg
Protocol: The actinomycin D prodrug (AMDPD) of formula V was tested for toxicity in mice. Groups of 3 mice were given 1, 10 or 100 mg/kg body weight i.p. of AMPD, and two further groups of 3 mice were given 1 and 10 mg/kg body weight i.p. of actinomycin D (AMD) dissolved in arachis oil. A further group of 3 mice were untreated, and a final group of 3 mice were given arachis oil i.p. only.
The body weight of the mice were monitored over 9 days. All mice treated with 10 mg/kg of AMD were dead by day 1. […] In practice, the toxicity of AMDPD is likely to be even lower, since the preparation of AMDPD used contains about 1% unconverted AMD.

V79 cells [3] = assay: Survival (colony forming ability) of V79 cells with enzyme-activated prodrugs (Table 8); type: cell-based; conditions: 50 μM prodrug alone
Protocol: (§1) Generation of cytotoxicity by the action of the E. coli nitroreductase of Example 1 upon the prodrugs 4-[bis(2-chloroethyl)amino]phenylcarbamic acid 4'-nitrobenzyl ester (I where R^1 NH2 =III) and N-4-nitrobenzyloxy-carbonyl-actinomycin D (V) are shown in Table 8.
(§2) The effect of enzyme-activated prodrugs on the survival of V79
(§3) cells. 1 ml volumes of V79 cells (2 × 10^5 /ml) were incubated
(§4) with prodrug, 500 μM NADH, and 10 μg/ml enzyme. After a 2 hour
(§5) incubation at 37° C., the cells were harvested and assayed for
(§6) their colony forming ability, and the supernatant assayed for
(§7) the concentration of remaining prodrug by HPLC.

E. coli nitroreductase [4] = target: T1, E. coli nitroreductase; assay: % drug reduction in the V79 incubations, remaining prodrug by HPLC (Table 8); type: biochemical
Protocol: as §1, §2, §3, §4, §5, §6, §7

E. coli B nitroreductase = target: T2, E. coli B nitroreductase (Escherichia coli, UniProt P38489); assay: Enzyme kinetic and inhibition studies; type: biochemical
T2 construct: endogenous in cells; host or cells: E. coli B cell paste; endogenous enzyme purified by Phenyl-Sepharose and Q-Sepharose chromatography, not recombinant
Protocol: Protein concentration was determined using the a conventional protein assay (Bio-Rad) calibrated against bovine serum albumin.

V79 cells [5] = assay: Survival (colony-forming ability) of V79 cells treated with CB 1954 in the presence of E. coli B nitroreductase (Table 4); type: cell-based, Hamster; conditions: nitroreductase 2 μg/ml
Protocol: E. coli B nitroreductase. All treatments were for 2 hours at 37°
cells were then plated out for their resulting colony-forming ability.
nitroreductase concentration was 2 μg/ml and NADH was used as a […]

## NC(=O)c1cc(NCCO)c([N+](=O)[O-])cc1[N+](=O)[O-] [2,4-dinitro-5-(2-hydroxyethylamino)benzamide]
E. coli nitroreductase [1]
  RELATIVE RATE OF NADH OXIDATION NR: 0.04

## O=[N+]([O-])c1ccc(O)c([N+](=O)[O-])c1 [2,4-dinitrophenol]
E. coli nitroreductase [1]
  RELATIVE RATE OF NADH OXIDATION NR: < 0.01

## NC(=O)c1cc(N2CC2)c([N+](=O)[O-])cc1N [2-amino-5-(aziridin-1-yl)-4-nitrobenzamide]
E. coli nitroreductase [1]
  RELATIVE RATE OF NADH OXIDATION NR: < 0.01

## NC(=O)c1ccccc1[N+](=O)[O-] [2-nitrobenzamide]
E. coli nitroreductase [1]
  RELATIVE RATE OF NADH OXIDATION NR: 0.06

## NC(=O)c1cc([N+](=O)[O-])cc([N+](=O)[O-])c1 [3,5-dinitrobenzamide]
E. coli nitroreductase [1]
  RELATIVE RATE OF NADH OXIDATION NR: 75.5

## NC(=O)c1cccc([N+](=O)[O-])c1 [3-nitrobenzamide]
E. coli nitroreductase [1]
  RELATIVE RATE OF NADH OXIDATION NR: 1.8

## NC(=O)c1ccc([N+](=O)[O-])cc1 [4-nitrobenzamide]
E. coli nitroreductase [1]
  RELATIVE RATE OF NADH OXIDATION NR: 5.1

## NC(=O)c1cc(Cl)c([N+](=O)[O-])cc1[N+](=O)[O-] [5-chloro-2,4-dinitrobenzamide]
E. coli nitroreductase [1]
  RELATIVE RATE OF NADH OXIDATION NR: 22.4

## NC(=O)NN=Cc1ccc([N+](=O)[O-])o1 [5-nitro-2-furaldehydesemicarbazone]
E. coli nitroreductase [1]
  RELATIVE RATE OF NADH OXIDATION NR: 3.6

## Cc1c2oc3c(C)ccc(C(=O)N[C@@H]4C(=O)N[C@H](C(C)C)C(=O)N5CCC[C@H]5C(=O)N(C)CC(=O)N(C)[C@@H](C(C)C)C(=O)O[C@@H]4C)c3nc-2c(C(=O)N[C@@H]2C(=O)N[C@H](C(C)C)C(=O)N3CCC[C@H]3C(=O)N(C)CC(=O)N(C)[C@@H](C(C)C)C(=O)O[C@@H]2C)c(N)c1=O [AMD, actinomycin D] (I: T[dV]P[Sar][NMeV] / II: T[dV]P[Sar][NMeV]; ester I:1-I:C, II:1-II:C; linker I:N-II:N via Actinocin(9to1))
[2]; dose 1.0 mg/kg i.p., mice
  Weight as % of Day 0, Day 2: 98.6%
  Weight as % of Day 0, Day 3: 95%
  Weight as % of Day 0, Day 7: 101.6%
  Weight as % of Day 0, Day 9: 103%
[2]
  deaths: dead by day 1
[2]; listed as Active Drug
  deaths: All dead on day 1

## O=C(Nc1ccc(N(CCCl)CCCl)cc1)OCc1ccc([N+](=O)[O-])cc1 [I where R^1 NH2 = III, 4-[Bis(2-chloroethyl)amino]phenylcarbamic acid 4'-nitrobenzyl ester]
V79 cells [3]
  % SURVIVAL: 27.1%
E. coli nitroreductase [4]; 50 μM prodrug alone
  % DRUG REDUCTION: < 1.0%
E. coli nitroreductase [4]; NR 10 μg/ml + 50 μM prodrug + 500 μM NADH
  % DRUG REDUCTION: 30%

## CC1=CC(=O)c2ccccc2C1=O [MENADIONE, menadione]
E. coli B nitroreductase
  Km of nitroreductase for menadione higher than Walker enzyme: 60 fold

B1: Nitroreductase (NR): flavoprotein nitroreductase isolated from E. coli B, molecular weight 24 kDa, FMN coenzyme (protein, UniProt P38489 1-217, looked up)
Oxygen-insensitive NAD(P)H …: MDIISVALKRHSTKAFDASKKLTPEQAEQIKTLLQYSPSSTNSQPWHFIVASTEEGKARVAKSAAGNYVFNERKMLDASHVVVFCAKTAMDDVWLKLVVDQEDADGRFATPEAKAANDKGRKFFADMHRKDLHDDAEWMAKQVYLNVGNFLLGVAALGLDAVPIEGFDAAILDAEFGLKEKGYTSLVVVPVGHHSVEDFNATLPKSRLPQNITLTEV
V79 cells [5]
  % SURVIVAL: 94%
